# Data reported in PubChem BioAssay AID1918940 (Molecular Pharmacology Branch, DTP, NCI, 2023).
# Test system: NCI-H211 complex spheroid viability
# Assay: Anticancer human tumor NCI-H211 cell line growth inhibition [LSD1];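 also: luminescent viability read after seven days of drug exposure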;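 as to viability, T/C: 100% = DMSO vehicle control viability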
# Settings: for IC50: curve of first compound; for viability, T/C: stronger effect = lower value
# From the text: Multicellular complex tumor spheroid response to LSD1 Inhibitor Iadademstat in combination with a variety of drugs and investigational agents in selected tumor cell lines
# The current study was undertaken to assess response to LSD1 inhibitors in combination with standard-of-care drugs and investigational agents in solid tumor complex spheroid models as well as in the K-562 leukemia. Complex spheroids include a stromal component modeled by human endothelial cells (HUVEC) and fibroblasts modeled by human mesenchymal stem cells (MSCs). The concentration ranges selected for each drug and investigational agent were based upon clinically achievable concentrations if the clinical Cmax of the agent was known.
# Compounds. The drugs and investigational agents used in this study are listed on Table 1. All of the agents used, including staurosporine (NSC755774) and gemcitabine (NSC613327), were obtained from the Developmental Therapeutics Program, NCI. FDA-approved anticancer drugs are available from the NCI at http://dtp.nci.nih.gov/branches/dscb/oncology_drugset_explanation.html. Drugs and investigational agents were >95% pure by proton nuclear magnetic resonance (NMR) and liquid chromatography/mass spectrometry (LC/MS). Stock solutions were prepared at 400x in DMSO, stored at -70 degrees C, and diluted in fresh medium prior to their use. The final concentration of DMSO in cell culture wells never exceeded 0.25% (v/v). The FDA-approved anticancer drug set is available from the Developmental Therapeutics Program at https://dtp.cancer.gov/organization/dscb/obtaining/available_plates.htm. All drugs and investigational agents were tested over a range starting from a high concentration at or near the clinical Cmax and decreasing in half-log increments. If the clinical Cmax for an agent had not been determined, the highest concentration tested was 10 microM.
# Cell Lines. The patient-derived cancer cell (PDC) lines: 292921-168-R-J2-PDC, K24384-001-R-PDC, and 521955-158-R2-J5-PDC pancreatic carcinomas, 556581-035-R-J1 ovarian carcinoma, 324938-238-R-J1-PDC, 855422-203-R-J1-PDC and 883617-216-R-J1-PDC urothelial bladder carcinomas, 743489-274-T-PDC renal cell carcinoma, 138582-R-J1 Merkel cell tumor, K60290-347-R-J1 and K57222-313-R-J1-PDC glioblastomas, 653999-131-R-J2-PDC, LG0703-F948-PDC, and 349418-098-R-PDC non-small cell lung carcinomas, 885512-296-R-J2-PDC, 171881-019-R-J1-PDC breast carcinomas and 186277-243-T-J2-PDC and 233499-124-R-J2-PDC colon carcinomas were obtained from the NCI Patient-Derived Models Repository (PDMR, https://pdmr.cancer.gov). The established cell lines NCI/ADR-RES (RRID:CVCL_14520 and OVCAR-5 (RRID:CVCL_1628) ovarian carcinomas, 786-O (RRID:CVCL_1051) and A498 (RRID:CVCL_A498) renal cell carcinoma, NCI-H211 (ATCC, cat. CRL-5824; RRID:CVCL_1529), NCI-H196 (ATCC, cat. CRL-5823, RRID:CVCL_1509), SW 1271 (ATCC, cat. CRL-2177, RRID:CVCL_1716) and NCI-H1876 (ATCC, cat. CRL-5902, RRID:CVCL_1503) small cell lung carcinomas, MDA-MB-231 (RRID:CVCL_0062) and MDA-MB-468 (RRID:CVCL_0419)breast carcinomas (10-12). Pooled donor human umbilical vein endothelial cells (HUVEC, Lonza, cat. CC-2519) and human mesenchymal stem cells (hMSC, Lonza, cat. PT-2501) were purchased from Lonza (Walkersville, MD).
# Cell Culture. All cells were maintained in an incubator at 37 degrees C and 5% CO2 with 95% humidity. The PDC lines were cultured according to standard operating procedures established by the NCI PDMR (https://pdmr.cancer.gov). Briefly all PDCs were thawed and cultured in Matrigel-coated flasks prepared with a working solution of 1X Ham's F-12 nutrient mix, without supplementation (Invitrogen, Waltham, MA, cat. 11765054), 100 U/mL penicillin-streptomycin (Invitrogen, cat. 15140122), and 2.5% Matrigel (Corning Inc., Corning, NY, cat. 354248) for the first three passages. […]
# [1] = second compound 0.1 µM, first compound 0.000949 µM
# [2] = second compound 0.1 µM, first compound 0.003 µM
# [3] = second compound 0.1 µM, first compound 0.00949 µM
# [4] = second compound 0.1 µM, first compound 0.03 µM
# [5] = second compound 0.1 µM, first compound 0.0949 µM
# [6] = second compound 0.1 µM, first compound 0.3 µM
# [7] = second compound 0.316 µM, first compound 0.000949 µM
# [8] = second compound 0.316 µM, first compound 0.003 µM
# [9] = second compound 0.316 µM, first compound 0.00949 µM
# [10] = second compound 0.316 µM, first compound 0.03 µM
# [11] = second compound 0.316 µM, first compound 0.0949 µM
# [12] = second compound 0.316 µM, first compound 0.3 µM
# [13] = second compound 1 µM, first compound 0.000949 µM
# [14] = second compound 1 µM, first compound 0.003 µM
# [15] = second compound 1 µM, first compound 0.00949 µM
# [16] = second compound 1 µM, first compound 0.03 µM
# [17] = second compound 1 µM, first compound 0.0949 µM
# [18] = second compound 1 µM, first compound 0.3 µM
# [19] = second compound 3.16 µM, first compound 0.000949 µM
# [20] = second compound 3.16 µM, first compound 0.003 µM
# [21] = second compound 3.16 µM, first compound 0.00949 µM
# [22] = second compound 3.16 µM, first compound 0.03 µM
# [23] = second compound 3.16 µM, first compound 0.0949 µM
# [24] = second compound 3.16 µM, first compound 0.3 µM
# [25] = second compound 10 µM, first compound 0.000949 µM
# [26] = second compound 10 µM, first compound 0.003 µM
# [27] = second compound 10 µM, first compound 0.00949 µM
# [28] = second compound 10 µM, first compound 0.03 µM
# [29] = second compound 10 µM, first compound 0.0949 µM
# [30] = second compound 10 µM, first compound 0.3 µM
smiles,measurement,setting,value
CCc1c2c(nc3ccc(O)cc13)-c1cc3c(c(=O)n1C2)COC(=O)[C@]3(O)CC + NC1CC1c1ccc(-c2cccc(O)c2)cc1,IC50,second compound 0.1 µM,< 0.949 nM
same,IC50,second compound 0.316 µM,< 0.949 nM
same,IC50,second compound 1 µM,< 0.949 nM
same,IC50,second compound 3.16 µM,< 0.949 nM
same,IC50,second compound 10 µM,< 0.949 nM
same,"viability, T/C",[1],3.24%
same,"viability, T/C",[2],1.7%
same,"viability, T/C",[3],2.13%
same,"viability, T/C",[4],0.66%
same,"viability, T/C",[5],0.05%
same,"viability, T/C",[6],0.14%
same,"viability, T/C",[7],3.2%
same,"viability, T/C",[8],1.12%
same,"viability, T/C",[9],1.18%
same,"viability, T/C",[10],1.44%
same,"viability, T/C",[11],0.05%
same,"viability, T/C",[12],0.15%
same,"viability, T/C",[13],3.18%
same,"viability, T/C",[14],1.68%
same,"viability, T/C",[15],1.11%
same,"viability, T/C",[16],0.97%
same,"viability, T/C",[17],0.04%
same,"viability, T/C",[18],0.16%
same,"viability, T/C",[19],2.71%
same,"viability, T/C",[20],1.57%
same,"viability, T/C",[21],1.28%
same,"viability, T/C",[22],0.83%
same,"viability, T/C",[23],0.05%
same,"viability, T/C",[24],0.2%
same,"viability, T/C",[25],2.86%
same,"viability, T/C",[26],1.99%
same,"viability, T/C",[27],1.75%
same,"viability, T/C",[28],1.25%
same,"viability, T/C",[29],0.17%
same,"viability, T/C",[30],0.2%
Nc1ccn(C2OC(CO)C(O)C2(F)F)c(=O)n1 (stereo not given) + NC1CC1c1ccc(-c2cccc(O)c2)cc1,IC50,second compound 0.1 µM,< 0.949 nM
same,IC50,second compound 0.316 µM,< 0.949 nM
same,IC50,second compound 1 µM,< 0.949 nM
same,IC50,second compound 3.16 µM,< 0.949 nM
same,IC50,second compound 10 µM,< 0.949 nM
same,"viability, T/C",[1],4.79%
same,"viability, T/C",[2],3.12%
same,"viability, T/C",[3],3.86%
same,"viability, T/C",[4],4.15%
same,"viability, T/C",[5],4.2%
same,"viability, T/C",[6],3.74%
same,"viability, T/C",[7],3.95%
same,"viability, T/C",[8],4.1%
same,"viability, T/C",[9],4.15%
same,"viability, T/C",[10],3.65%
same,"viability, T/C",[11],3.64%
same,"viability, T/C",[12],3.81%
same,"viability, T/C",[13],3.83%
same,"viability, T/C",[14],4.15%
same,"viability, T/C",[15],4.41%
same,"viability, T/C",[16],3.58%
same,"viability, T/C",[17],3.35%
same,"viability, T/C",[18],4.53%
same,"viability, T/C",[19],5.21%
same,"viability, T/C",[20],4.54%
same,"viability, T/C",[21],4.13%
same,"viability, T/C",[22],4.09%
same,"viability, T/C",[23],3.28%
same,"viability, T/C",[24],4.65%
same,"viability, T/C",[25],4.67%
same,"viability, T/C",[26],4.95%
same,"viability, T/C",[27],4.53%
same,"viability, T/C",[28],5.27%
same,"viability, T/C",[29],3.89%
same,"viability, T/C",[30],4.22%
O=C(c1cc(Cc2n[nH]c(=O)c3ccccc23)ccc1F)N1CCN(C(=O)C2CC2)CC1 + NC1CC1c1ccc(-c2cccc(O)c2)cc1,IC50,second compound 0.1 µM,< 31.6 nM
same,IC50,second compound 0.316 µM,< 31.6 nM
same,IC50,second compound 1 µM,< 31.6 nM
same,IC50,second compound 3.16 µM,< 31.6 nM
same,IC50,second compound 10 µM,< 31.6 nM
same,"viability, T/C","second compound 0.1 µM, first compound 0.0316 µM",47.4%
same,"viability, T/C","second compound 0.1 µM, first compound 0.1 µM",25%
same,"viability, T/C","second compound 0.1 µM, first compound 0.316 µM",7.94%
same,"viability, T/C","second compound 0.1 µM, first compound 1 µM",5.7%
same,"viability, T/C","second compound 0.1 µM, first compound 3.16 µM",6.16%
same,"viability, T/C","second compound 0.1 µM, first compound 10 µM",5.03%
same,"viability, T/C","second compound 0.316 µM, first compound 0.0316 µM",48.9%
same,"viability, T/C","second compound 0.316 µM, first compound 0.1 µM",24.5%
same,"viability, T/C","second compound 0.316 µM, first compound 0.316 µM",8.13%
same,"viability, T/C","second compound 0.316 µM, first compound 1 µM",5.19%
same,"viability, T/C","second compound 0.316 µM, first compound 3.16 µM",4.85%
same,"viability, T/C","second compound 0.316 µM, first compound 10 µM",5.84%
same,"viability, T/C","second compound 1 µM, first compound 0.0316 µM",44%
same,"viability, T/C","second compound 1 µM, first compound 0.1 µM",22%
same,"viability, T/C","second compound 1 µM, first compound 0.316 µM",7.69%
same,"viability, T/C","second compound 1 µM, first compound 1 µM",5.3%
same,"viability, T/C","second compound 1 µM, first compound 3.16 µM",6.41%
same,"viability, T/C","second compound 1 µM, first compound 10 µM",5.15%
same,"viability, T/C","second compound 3.16 µM, first compound 0.0316 µM",49.2%
same,"viability, T/C","second compound 3.16 µM, first compound 0.1 µM",19.5%
same,"viability, T/C","second compound 3.16 µM, first compound 0.316 µM",8.34%
same,"viability, T/C","second compound 3.16 µM, first compound 1 µM",5.75%
same,"viability, T/C","second compound 3.16 µM, first compound 3.16 µM",6.96%
same,"viability, T/C","second compound 3.16 µM, first compound 10 µM",5.88%
same,"viability, T/C","second compound 10 µM, first compound 0.0316 µM",34.4%
same,"viability, T/C","second compound 10 µM, first compound 0.1 µM",17.2%
same,"viability, T/C","second compound 10 µM, first compound 0.316 µM",8.43%
same,"viability, T/C","second compound 10 µM, first compound 1 µM",5.92%
same,"viability, T/C","second compound 10 µM, first compound 3.16 µM",6.26%
same,"viability, T/C","second compound 10 µM, first compound 10 µM",6.28%
